From PubChem BioAssay (NCI)
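1) Cells in 96-well plates. 2) Compound, 48 h, 5 concentrations. 3) Linear interpolation between surrounding doses. 4) Unreached endpoint = highest concentration. TGI marks complete inhibition of growth.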

How the values were obtained:
Assay in all cases: NCI-60 cell line screen, 48 h
IGROV1 ovarian = test system: IGROV1 ovarian
BT-549 breast = test system: BT-549 breast
T-47D breast = test system: T-47D breast
NCI/ADR-RES ovarian = test system: NCI/ADR-RES ovarian
UACC-62 melanoma = test system: UACC-62 melanoma
M14 melanoma = test system: M14 melanoma
CCRF-CEM leukemia = test system: CCRF-CEM leukemia
DU-145 prostate = test system: DU-145 prostate
MDA-MB-435 = test system: MDA-MB-435
OVCAR-5 ovarian = test system: OVCAR-5 ovarian
A498 renal = test system: A498 renal
U251 CNS = test system: U251 CNS
SF-295 CNS = test system: SF-295 CNS
KM12 colon = test system: KM12 colon
ACHN renal = test system: ACHN renal
HOP-62 NSCLC = test system: HOP-62 NSCLC
TK-10 renal = test system: TK-10 renal
SN12C renal = test system: SN12C renal
HL-60(TB) leukemia = test system: HL-60(TB) leukemia
NCI-H23 lung = test system: NCI-H23 lung
COLO 205 colon = test system: COLO 205 colon
SK-MEL-2 melanoma = test system: SK-MEL-2 melanoma
NCI-H522 lung = test system: NCI-H522 lung
HCC-2998 colon = test system: HCC-2998 colon
RXF 393 renal = test system: RXF 393 renal
HS 578T breast = test system: HS 578T breast
SW-620 colon = test system: SW-620 colon
SF-268 CNS = test system: SF-268 CNS
SNB-19 CNS = test system: SNB-19 CNS
OVCAR-3 ovarian = test system: OVCAR-3 ovarian
LOX IMVI melanoma = test system: LOX IMVI melanoma
MCF7 breast = test system: MCF7 breast
OVCAR-4 ovarian = test system: OVCAR-4 ovarian
MOLT-4 leukemia = test system: MOLT-4 leukemia
HCT-116 colon = test system: HCT-116 colon
MDA-N = test system: MDA-N
SR leukemia = test system: SR leukemia
HOP-92 NSCLC = test system: HOP-92 NSCLC
EKVX NSCLC = test system: EKVX NSCLC
OVCAR-8 ovarian = test system: OVCAR-8 ovarian
786-0 renal = test system: 786-0 renal
SNB-75 CNS = test system: SNB-75 CNS
MDA-MB-231 breast = test system: MDA-MB-231 breast
HCT-15 colon = test system: HCT-15 colon
NCI-H226 lung = test system: NCI-H226 lung
UACC-257 melanoma = test system: UACC-257 melanoma
SK-MEL-28 melanoma = test system: SK-MEL-28 melanoma
SK-MEL-5 melanoma = test system: SK-MEL-5 melanoma
SF-539 CNS = test system: SF-539 CNS
UO-31 renal = test system: UO-31 renal
CAKI-1 renal = test system: CAKI-1 renal
SK-OV-3 ovarian = test system: SK-OV-3 ovarian
K-562 leukemia = test system: K-562 leukemia
NCI-H460 lung = test system: NCI-H460 lung
PC-3 prostate = test system: PC-3 prostate
HT29 colon = test system: HT29 colon
RPMI-8226 leukemia = test system: RPMI-8226 leukemia
A549 NSCLC = test system: A549 NSCLC
MALME-3M melanoma = test system: MALME-3M melanoma

`COC(=O)C(CCC1C=CN(S(=O)(=O)c2ccc(C)cc2)C1)N=Cc1ccccc1` (stereo not given) was tested, and the TGI (IGROV1 ovarian) was > 100 µM, the TGI (BT-549 breast) was > 100 µM and the TGI (T-47D breast) was > 100 µM. For the same compound, the TGI (NCI/ADR-RES ovarian) was > 100 µM, the TGI (UACC-62 melanoma) was > 100 µM and the TGI (M14 melanoma) was > 100 µM. For the same compound, the TGI (CCRF-CEM leukemia) was > 100 µM, the TGI (DU-145 prostate) was > 100 µM and the TGI (MDA-MB-435) was > 100 µM. For the same compound, the TGI (OVCAR-5 ovarian) was > 100 µM, the TGI (A498 renal) was > 100 µM and the TGI (U251 CNS) was > 100 µM. For the same compound, the TGI (SF-295 CNS) was > 100 µM, the TGI (KM12 colon) was > 100 µM and the TGI (ACHN renal) was > 100 µM. The TGI (HOP-62 NSCLC) was > 100 µM, the TGI (TK-10 renal) was > 100 µM and the TGI (SN12C renal) was > 100 µM. It also gave a TGI (HL-60(TB) leukemia) of 22.1 µM, a TGI (NCI-H23 lung) of 63 µM and a TGI (COLO 205 colon) of 41.1 µM. The TGI (SK-MEL-2 melanoma) was 49.6 µM, the TGI (NCI-H522 lung) was > 100 µM and the TGI (HCC-2998 colon) was > 100 µM. The TGI (RXF 393 renal) was > 100 µM, the TGI (HS 578T breast) was > 100 µM and the TGI (SW-620 colon) was > 100 µM. The TGI (SF-268 CNS) was > 100 µM, the TGI (SNB-19 CNS) was > 100 µM and the TGI (OVCAR-3 ovarian) was > 100 µM. The TGI (LOX IMVI melanoma) was > 100 µM, the TGI (MCF7 breast) was > 100 µM and the TGI (OVCAR-4 ovarian) was > 100 µM. For the same compound, the TGI (MOLT-4 leukemia) was > 100 µM, the TGI (HCT-116 colon) was > 100 µM and the TGI (MDA-N) was > 100 µM. For the same compound, the TGI (SR leukemia) was 61.1 µM, the TGI (HOP-92 NSCLC) was > 100 µM and the TGI (EKVX NSCLC) was > 100 µM. The TGI (OVCAR-8 ovarian) was > 100 µM, the TGI (786-0 renal) was > 100 µM and the TGI (SNB-75 CNS) was > 100 µM. The TGI (MDA-MB-231 breast) was > 100 µM, the TGI (HCT-15 colon) was > 100 µM and the TGI (NCI-H226 lung) was > 100 µM. For the same compound, the TGI (UACC-257 melanoma) was > 100 µM, the TGI (SK-MEL-28 melanoma) was > 100 µM and the TGI (SK-MEL-5 melanoma) was 53.9 µM. The TGI (SF-539 CNS) was > 100 µM, the TGI (UO-31 renal) was > 100 µM and the TGI (CAKI-1 renal) was > 100 µM. The TGI (SK-OV-3 ovarian) was > 100 µM, the TGI (K-562 leukemia) was > 100 µM and the TGI (NCI-H460 lung) was > 100 µM. For the same compound, the TGI (PC-3 prostate) was > 100 µM, the TGI (HT29 colon) was > 100 µM and the TGI (RPMI-8226 leukemia) was 82 µM. For the same compound, the TGI (A549 NSCLC) was > 100 µM.

`Nc1ccc2c(c1)S(=O)(=O)c1cc(O)ccc1O2` was tested, and the TGI (IGROV1 ovarian) was > 100 µM, the TGI (BT-549 breast) was > 100 µM and the TGI (T-47D breast) was > 100 µM. For the same compound, the TGI (NCI/ADR-RES ovarian) was > 100 µM, the TGI (UACC-62 melanoma) was > 100 µM and the TGI (M14 melanoma) was > 100 µM. For the same compound, the TGI (CCRF-CEM leukemia) was > 100 µM, the TGI (DU-145 prostate) was > 100 µM and the TGI (MDA-MB-435) was > 100 µM. The TGI (OVCAR-5 ovarian) was > 100 µM, the TGI (A498 renal) was > 100 µM and the TGI (U251 CNS) was > 100 µM. For the same compound, the TGI (SF-295 CNS) was > 100 µM, the TGI (KM12 colon) was > 100 µM and the TGI (ACHN renal) was > 100 µM. The TGI (HOP-62 NSCLC) was > 100 µM, the TGI (TK-10 renal) was > 100 µM and the TGI (SN12C renal) was > 100 µM. The TGI (HL-60(TB) leukemia) was > 100 µM, the TGI (NCI-H23 lung) was > 100 µM and the TGI (COLO 205 colon) was > 100 µM. The TGI (SK-MEL-2 melanoma) was > 100 µM, the TGI (NCI-H522 lung) was > 100 µM and the TGI (HCC-2998 colon) was > 100 µM. For the same compound, the TGI (RXF 393 renal) was > 100 µM, the TGI (HS 578T breast) was > 100 µM and the TGI (SW-620 colon) was > 100 µM. The TGI (SF-268 CNS) was > 100 µM, the TGI (SNB-19 CNS) was > 100 µM and the TGI (OVCAR-3 ovarian) was > 100 µM. For the same compound, the TGI (LOX IMVI melanoma) was > 100 µM, the TGI (MCF7 breast) was > 100 µM and the TGI (OVCAR-4 ovarian) was > 100 µM. For the same compound, the TGI (MOLT-4 leukemia) was > 100 µM, the TGI (HCT-116 colon) was > 100 µM and the TGI (MDA-N) was > 100 µM. The TGI (SR leukemia) was > 100 µM, the TGI (HOP-92 NSCLC) was > 100 µM and the TGI (EKVX NSCLC) was > 100 µM. For the same compound, the TGI (OVCAR-8 ovarian) was > 100 µM, the TGI (786-0 renal) was > 100 µM and the TGI (MDA-MB-231 breast) was > 100 µM. The TGI (HCT-15 colon) was > 100 µM, the TGI (NCI-H226 lung) was > 100 µM and the TGI (UACC-257 melanoma) was > 100 µM. The TGI (SK-MEL-28 melanoma) was > 100 µM, the TGI (SK-MEL-5 melanoma) was > 100 µM and the TGI (SF-539 CNS) was > 100 µM. The TGI (UO-31 renal) was > 100 µM, the TGI (CAKI-1 renal) was > 100 µM and the TGI (SK-OV-3 ovarian) was > 100 µM. For the same compound, the TGI (K-562 leukemia) was > 100 µM, the TGI (NCI-H460 lung) was > 100 µM and the TGI (PC-3 prostate) was > 100 µM. The TGI (HT29 colon) was > 100 µM and the TGI (A549 NSCLC) was > 100 µM.

For `CC1=c2c(oc3cc(O)c(Nc4c(C)cc(O)cc4O)c(C)c23)=CC(=O)C1=Nc1c(C)cc(O)cc1O`, the TGI (IGROV1 ovarian) was > 100 µM, the TGI (BT-549 breast) was > 100 µM and the TGI (T-47D breast) was > 100 µM. The TGI (NCI/ADR-RES ovarian) was > 100 µM, the TGI (UACC-62 melanoma) was > 100 µM and the TGI (M14 melanoma) was 85.3 µM. The TGI (DU-145 prostate) was > 100 µM, the TGI (MDA-MB-435) was 33.5 µM and the TGI (OVCAR-5 ovarian) was > 100 µM. The TGI (A498 renal) was > 100 µM, the TGI (U251 CNS) was > 100 µM and the TGI (SF-295 CNS) was 70.1 µM. For the same compound, the TGI (KM12 colon) was 94 µM, the TGI (ACHN renal) was > 100 µM and the TGI (HOP-62 NSCLC) was > 100 µM. The TGI (TK-10 renal) was > 100 µM, the TGI (SN12C renal) was 73.7 µM and the TGI (NCI-H23 lung) was 50.4 µM. For the same compound, the TGI (COLO 205 colon) was 42.1 µM, the TGI (SK-MEL-2 melanoma) was > 100 µM and the TGI (NCI-H522 lung) was 63.1 µM. The TGI (HCC-2998 colon) was 55.7 µM, the TGI (RXF 393 renal) was > 100 µM and the TGI (HS 578T breast) was > 100 µM. The TGI (SW-620 colon) was > 100 µM, the TGI (SF-268 CNS) was > 100 µM and the TGI (SNB-19 CNS) was > 100 µM. The TGI (OVCAR-3 ovarian) was 55.3 µM, the TGI (MCF7 breast) was > 100 µM and the TGI (OVCAR-4 ovarian) was > 100 µM. The TGI (MOLT-4 leukemia) was > 100 µM, the TGI (HCT-116 colon) was 68.5 µM and the TGI (MDA-N) was 40 µM. For the same compound, the TGI (SR leukemia) was > 100 µM, the TGI (HOP-92 NSCLC) was > 100 µM and the TGI (EKVX NSCLC) was > 100 µM. For the same compound, the TGI (OVCAR-8 ovarian) was > 100 µM, the TGI (786-0 renal) was > 100 µM and the TGI (SNB-75 CNS) was 88.3 µM. The TGI (MDA-MB-231 breast) was > 100 µM, the TGI (HCT-15 colon) was > 100 µM and the TGI (NCI-H226 lung) was > 100 µM. The TGI (MALME-3M melanoma) was 54.3 µM, the TGI (UACC-257 melanoma) was > 100 µM and the TGI (SK-MEL-28 melanoma) was > 100 µM. The TGI (SK-MEL-5 melanoma) was 35.1 µM, the TGI (SF-539 CNS) was 56.3 µM and the TGI (UO-31 renal) was > 100 µM. For the same compound, the TGI (CAKI-1 renal) was > 100 µM, the TGI (SK-OV-3 ovarian) was > 100 µM and the TGI (K-562 leukemia) was > 100 µM. The TGI (NCI-H460 lung) was > 100 µM, the TGI (PC-3 prostate) was > 100 µM and the TGI (HT29 colon) was 94.9 µM. The TGI (RPMI-8226 leukemia) was > 100 µM and the TGI (A549 NSCLC) was > 100 µM.
